Consider 4 molecules from US8709379B2, “Liposomal nanoparticles and other formulations of fenretinide for use in therapy and drug delivery” (Scitech Development, LLC, priority 2006, dated 2014).

The test system of data set [1] is EpiDerm-FT (full thickness living skin model).
Experimental: (§1) Using an analytical method measuring HPR by HPLC, and extraction procedures that yield >95% recovery of HPR from skin homogenates, EpiDerm Enhanced Barrier Function and EpiDerm Full-thickness skin specimens were removed from the Franz cells at the scheduled time, washed and halved as described below, and then homogenized and extracted in acetonitrile supplemented with 4 μg/mL BHT, 0.1% ethanol for quantitation of HPR by HPLC. Receiver medium specimens were collected and processed for HPR analysis by HPLC as described below. Injection volumes were 100 μl for extracts of skin and receiver medium and 50 μl for calibration standards. HPR quantitation was by back calculation to a standard curve constructed from clinical grade HPR received from the NCI. […] For the second permeation study of Retin-A, PD05057 and HPR formulation C5 2005 using enhanced barrier function epidermal models, ATRA in the extracts of treated skin was quantified against an ATRA standard curve and HPR against an HPR standard curve.
(§2) 18 reconstituted EpiDerm-Full Thickness specimens (EFT-306-AFAB-PRF, lot #7024-306-AFAB-PR) and 18 reconstituted EpiDerm Skin Model Enhanced Barrier Function (EPI-606-X-AFAB-PRF, lot #5093ofs) were received in good condition from Mattek Inc via overnight courier. EpiDerm-FT was maintained in culture by specialized medium changes every other day according to the manufacturer's instructions. EpiDerm-606X was stored refrigerated until use. EpiDerm-FT medium was free of phenol red, antibiotic and anti-fungal additives (EFT-300-MM-ASY-AFAB-PRF, lot #110405aab and EPI-100-X), so as to avoid creating artifactual toxicity or proinflammatory response. The particular skin specimens were all reconstituted with normal human epidermal keratinocytes and, for EpiDerm-FT, fibroblasts as well from a single donor foreskin.
(§3) Three topical products were tested in the in vitro skin model: Retin-A 0.1% (lot #5BM258, expiry 02/07), HPR in topical formulation C5 and another HPR formulation (PD05057). These drugs were tested blindly using the following codes: “A” for Retin-A, “B” for the C5 formulation of HPR, and “D” for the HPR formulation PD05057. Receiver medium was made by mixing pre-warmed, 37° C. EFT-306 medium 5:1 with human serum albumin (Sigma A6909, lot #055K8904, then lot #095K8906) to its physiological concentration of 50 mg/mL. To prevent oxidation of HPR during the collection period, BHT was added to the receiver medium to a final concentration of 10 μg/mL from a 40 mg/mL solution of BHT-NF (Spectrum Chemicals, B1196, lot #UM0659) in Ethanol USP (NDC 11098-503-05, lot #121310). Each sterile amber Franz cells was pre-warmed to 37° C. using a circulating water bath, the bottom chamber filled completely with receiver medium (˜10 ml), and then reconstituted skin specimens were removed from the cell culture wells and spread across the orifice epidermis upward, and clamped into place with a sterile top chamber. Pre-weighed aliquots of a target dose of 1.7 mg Retin-A prepared using an analytical balance were applied to the epidermal face, disbursed and messaged with the aid of the rubber tip of 1 ml BD tuberculin syringes and the start time recorded.
Data set [2] has as its system EpiDerm-606X (epidermal model, enhanced barrier function). Conditions: human, 0.1 %.
Experimental: as §1, §2, §3
The nature of data set [3]: Delivered dose and retinoid flux, EpiDerm-FT in Franz cells. As to conditions: human, 1.7 mg Retin-A cream.
Experimental: as §1, §2, §3
Data set [4] deals with EpiDerm-FT (full thickness living skin model). The description is as above. Conditions: EpiDerm-FT, collection period up to 5 hours.
Experimental: as §1, §2, §3
Data set [5] is described as follows: Maximum (saturation) solubility of HPR in physiological aqueous systems with ethanol or human plasma proteins. The data set is classed as physicochemical. The method, then:
Although the compound is readily soluble in ethanol, this solvent solubility was not maintained when an ethanol solution of HPR was mixed into aqueous buffered systems, like physiological solutions, and in fact, even when the ethanol content of an aqueous solution of HPR was as high as 20%, the HPR solubility only reached approximately 1-2 μg/ml.
Purified human proteins were obtained from Sigma Chemical Company and dissolved in receiver medium, which was the same as the specialized medium from Mattek Inc used to maintain reconstituted skin systems or assay enhanced barrier permeability function. The individual proteins were dissolved to their respective plasma concentrations: high-density lipoprotein to 0.2 mg/mL, retinol binding protein to 0.05 mg/mL, serum albumin to 50 mg/mL (A6909, lot #055K8904), and acid α1-glycoprotein to 1 mg/mL (50646, lot #448248/1). HPR dissolved to 100 mg/mL in absolute ethanol supplemented with 4 mg/mL BHT was added to each protein solution to final theoretical concentration of 50 μg/mL and mixed by vortexing, the insoluble drug removed by centrifugation (12,000×g, 5 min, 23° C.), and the supernatant analyzed by HPLC to quantify HPR concentration.
A study of the HPR solubilizing properties of physiological concentrations of four human drug-binding plasma proteins that were expected to bind HPR under physiological conditions was conducted in receiver medium: high-density lipoprotein (HDL), retinol binding protein (RBP), albumin (ALB), and acid α-1-glycoprotein (AGP). Although certainly not the highest affinity binding, ALB solubilized more HPR per mL of receiver medium than any other plasma protein tested, driven primarily by its much higher physiological concentration than the other proteins. The solubilizing capacity of ALB was 7.5 μg HPR per ml of medium, which was 5-fold higher than that of 20 vol % ethanol. Using physiological concentrations of ALB in the 10 ml receiving medium chamber created a sink condition capable of binding 75 μg of HPR. Since the test surface area of the Franz cell was 1 cm^2 and the testing was conducted over 5 hours, this receiver medium was capable of supporting an average flux rate of 15 μg/cm^2/hour. It was concluded that this receiving medium should provide true sink conditions, considering the applied test dose of API from each formulation was just 1.7 μg/cm^2.

A short description of data set [6]: Clinical trial and pharmacokinetic study of oral HPR (corn oil soft gel capsules) in adult solid tumor patients. The data set is classed as in vivo, human. As to conditions: for Cmax: po. The method, then: In an early clinical trial and pharmacokinetic study of oral HPR (corn oil, soft gel capsules) administered qdx7 to adult solid tumor patients at Wayne State University, dose escalation proceeded to 1600 mg/m^2 TID per day for seven days (˜90 capsules/day for one week).

The nature of data set [7]: Bioavailability of oral HPR in corn oil versus IV F23 in Sprague-Dawley rats. The data set is classed as in vivo. As to conditions: plasma, rat, 1200 mg/m^2 in corn oil by gavage vs 444 mg/m^2 IV F23, AUC0-30, read-out: bioavailability of orally dosed HPR. The method, then:
The appropriate doses of injectable HPR administered IV to achieve desired blood or tissue levels can be determined by those skilled in the art, using data from related studies of oral and intravenous HPR formulations in healthy rats. For example, the present inventors administered a single, non-toxic bolus dose of 444 mg/m^2 of the F23 formulation (described herein) that was prepared at a strength of 50 mg/mL HPR, via femoral vein catheters to a group of seven dual catheterized Sprague-Dawley rats. A second group of rats received a single, non-toxic dose of 1200 mg/m^2 HPR in corn oil via oral gavage after an overnight fast which was maintained up until 2 hours after dosing. […]
Mean blood plasma concentration-time curves of measured HPR following oral and IV administration are shown in (FIG. 2). From such results, the bioavailability of the oral HPR can be calculated, as an accepted measure of the proportion of orally administered drug that entered systemic circulation. […] Bioavailability of oral HPR administered in corn oil was calculated by comparing the AUC values achieved by oral and intravenous dosing using the equation:
[formula] […] Assuming this to be similar to bioavailability of oral HPR in humans, which cannot be measured directly until human patients are actually dosed with intravenous HPR, it is possible to estimate suitable doses of HPR lipid nanoparticles for clinical use.

The subject of data set [8] is isolated epidermis (cadaveric). Description: Permeation into isolated cadaveric epidermis in Franz cells. The data set is classed as in vitro ADME. Conditions: receiver medium PBS with ethanol to 20 vol %. The method, then:
Epidermal drug levels achieved by 3 hours were stable to 24 hours. The C5 formulation reached 11. μg/mg after single application. The products were tested as 0.1% strength creams. Thus, by increasing strength of the product to 0.5% and applying twice daily, it is possible to achieve target content levels in the skin. Moreover, as discussed below, the C5 formulation may be advantageous in reaching this level in epidermis alone.

Data set [9] is described as follows: Maximum (saturation) solubility of HPR in physiological aqueous systems with ethanol or human plasma proteins. The data set is classed as physicochemical. As to conditions: 23 °C, kinetic from dmso stock, PBS pH 7.4.
The conditions of data set [10]: cited from earlier work.
Another data set deals with human tumor cell lines. As to conditions: for 72 hours in vitro; cited from earlier work.
For data set [11] the following is noted: rat, 24 hours after dosing; cited from earlier work.
The next data set concerns SCLC patients. Conditions: cited from earlier work.
The subject of the next data set is rodents. Conditions: in vivo; cited from earlier work.

The structures appear in SMILES notation. Converted amounts (≈) assume the structure as drawn. “And” between values parts separate entries of the source, which are not always exact repeats. Equal values may be shown once. Read-outs that look alike come from different tables or passages of the source. Where only a bound is given, the exact number is not on record here.

As to `CC1=C(/C=C/C(C)=C/C=C/C(C)=C/C(=O)O)C(C)(C)CCC1` [ATRA, all-trans-retinoic acid], in [1], the “detection in receiver medium” value was “No ATRA was detected”. For the same molecule, the “retinoid in Cells (skin specimen)” value was 0.031 µg in data set [1] (human, 0.2 h, 0.1 %); 0.042 µg in data set [1] (human, 2.1 h, 0.1 %); 0.056 µg in data set [1] (human, 3 h, 0.1 %); 0.035 µg in data set [1] (human, 5 h, 0.1 %). Also, the “retinoid in receiver Medium” value was found to be 0 µg in data set [1] (human, 0.2 h, 0.1 %); 0 µg in data set [1] (human, 2.1 h, 0.1 %); 0 µg in [1] (human, 3 h, 0.1 %); 0 µg in data set [1] (human, 5 h, 0.1 %); 0 µg in data set [2] (1 h); 0 µg in data set [2] (2 h). For the same molecule, the “retinoid in receiver Medium” value in data set [2] (3 h) and in [2] (5 h) was 0 µg in each case. For the same molecule, the “share of applied dose in skin specimen” value in data set [1] (human, 3 h, 0.1 %) is listed as 2.9%. Also, the “retinoid in Cells (epidermis)” value in data set [2] (1 h) is 0.209 µg; in data set [2] (2 h), 0.106 µg; in data set [2] (3 h), 0.046 µg; in [2] (5 h), 0.032 µg. Also, the half-life at 0.1 % in [3] was more than 2 h.
Consider `CC1=C(/C=C/C(C)=C/C=C/C(C)=C\C(=O)O)C(C)(C)CCC1` [Formulation 13-cis-RA, 13-cis-retinoic acid], for which, in [4], the “detection in receiver medium” value is listed as “accumulated in the receiver medium”.
For `CC1=C(/C=C/C(C)=C/C=C/C(C)=C/C(=O)Nc2ccc(O)cc2)C(C)(C)CCC1` [HPR, N-4-hydroxyphenylretinamide], the solubility in [5] (PBS with 20% ethanol, 23 °C, pH 7.4, aqueous with cosolvent or surfactant or cyclodextrin, kinetic from dmso stock, PBS pH 7.4, ethanol to 20% of volume, read-out: Maximum HPR Solubility) was 1 to 2 µg/mL (≈ 2.55 to 5.11 µM); in data set [5] (phosphate-buffered saline with 20 vol % ethanol, pH 7.4, aqueous with cosolvent or surfactant or cyclodextrin, kinetic from dmso stock, phosphate-buffered saline with ethanol to 20 vol %, read-out: HPR solubility), approximately 1.3 µg/mL (≈ 3.32 µM); in [5] (physiological saline / aqueous systems, saline or isotonic, physiological saline / aqueous systems, read-out: HPR solubility), approximately 0.005 µg/mL (≈ 0.0128 µM); in data set [9] (human, PBS with albumin 50 g/L, pH 7.4, plasma or biological fluid, albumin 50 g/L) it was 7 to 8 µg/mL (≈ 17.9 to 20.4 µM); in data set [9] (human, PBS with high density lipoprotein 0.2 g/L, pH 7.4, plasma or biological fluid, high density lipoprotein 0.2 g/L), 1.5 to 3 µg/mL (≈ 3.83 to 7.66 µM); in data set [9] (human, PBS with retinol binding protein 0.05 g/L, pH 7.4, plasma or biological fluid, retinol binding protein 0.05 g/L), less than 1 µg/mL. In addition, the solubility in data set [9] (human, PBS with α1-acid-glycoprotein 1 g/L, pH 7.4, plasma or biological fluid, α1-acid-glycoprotein 1 g/L) is 1 to 2 µg/mL (≈ 2.55 to 5.11 µM); in data set [9] (phosphate buffered saline, pH 7.4, aqueous buffer, additive none) it was less than 1 µg/mL. Moreover, in [5] (PBS with 20 vol % ethanol versus physiological saline), the “increase of HPR solubility by ethanol” value was 200 fold. Also, in [5] (receiver medium with albumin), the “solubilizing capacity of ALB relative to 20 vol % ethanol” value turned out to be 5 fold. Besides, the Cmax in [6] (human, plasma, after the first dose) is 1000 ng/mL to 1300 ng/mL and 2.6 µM to 3.3 µM; in data set [6] (human, plasma, after the last dose), 2800 ng/mL to 4600 ng/mL and 7 µM to 12 µM. Moreover, the half-life in data set [6] (human, plasma, oral HPR, patients, read-out: terminal phase half-life) is 8 to 14 h. Also, the “ceiling of plasma HPR level” value in data set [6] (oral, regardless of schedule or dose above 1200 mg/m^2 BID) was not above 5 µg/mL. Also, the bioavailability in [7] worked out at 8%. For the same molecule, the “HPR in receiver medium” value in data set [8] is reported as “not detected”. Moreover, the “plasma level of HPR” value is 80 ng/mL in data set [10] (oral 25 mg/kg/day for 10 days, 3 hrs after last dose); 260 ng/mL in data set [10] (oral 125 mg/kg/day for 10 days, 3 hrs after last dose); 315 ng/mL in data set [10] (oral 800 mg/kg/day). Also, in the data set on human tumor cell lines, the “minimum HPR exposure level required to inhibit human tumor cell lines by at least 50-90%” value is 10 µM. Further, in [11], the “accumulation in pancreas over plasma” value was 15-20 fold. In addition, the “maximum concentration of HPR in blood-plasma (±SD)” value in the data set on SCLC patients (14 SCLC patients, 3-4 hours after 14th oral dose (twice/day, 7 days), in µM) is recorded as 7.7±4.4 04. Also, the maximum plasma concentration result in the data set with SCLC patients (SCLC patients, after final of 14 oral doses of 900 mg/m^2) is on record as “approximately 7.7 μM”. Further, in the data set with SCLC patients (oral HPR), the “stable disease, share of advanced SCLC patients” value is listed as 30%. The “maximum tolerated dose (MTD)” value with rodents is on record as 651 mg/m^2. The “maximum tolerated dose for parenteral HPR” value in the data set on rodents is listed as approximately 650 mg/m^2 per day. For the same molecule, the “well tolerated daily dose” value with rodents was approximately 600 mg/m^2.
Take `COc1ccc(NC(=O)\C=C(C)/C=C/C=C(C)\C=C\C2=C(C)CCCC2(C)C)cc1` [MPR]: the “plasma level of MPR metabolite” value in [10] (oral HPR 125 mg/kg/day) and in data set [10] (oral HPR 800 mg/kg/day) was 60 ng/mL each time.
